pEC50: −log10 of the molar value.
These compounds were tested on PBMCs infected with VSV-G pseudotyped HIV virus (VSV-G/pNLG1-P2A-ΔEnv) (assay: cells). Details: Homo sapiens, PBMC, read-out: TACK EC50.
Assay type: cell-based, human

Row | SMILES | pEC50
1 | Nc1ccn(Cc2cc3c(cc2F)[C@@](C#CC2CC2)(C(F)(F)C2CC2)NC(=O)N3)n1 [Example 46, (S)-7-((3-amino-1H-pyrazol-1-yl)methyl)-4-(cyclopropyldifluoromethyl)-4-(cyclopropylethynyl)-6-fluoro-3,4-dihydroquinazolin-2(1H)-one] | 7.57
2 | CC(F)(F)[C@@]1(C#CC2CC2)NC(=O)Nc2cc(CNC(=O)c3ncc[nH]3)c(F)cc21 [Example 79, (S)—N-((4-(cyclopropylethynyl)-4-(1,1-difluoroethyl)-6-fluoro-2-oxo-1,2,3,4-tetrahydroquinazolin-7-yl)methyl)-1H-imidazole-2-carboxamide] | 8.04
3 | CC(F)(F)[C@@]1(C#CC2CC2)NC(=O)Nc2cc(Cn3ccnc3)c(F)cc21 [Example 56, (S)-7-((1H-imidazol-1-yl)methyl)-4-(cyclopropylethynyl)-4-(1,1-difluoroethyl)-6-fluoro-3,4-dihydroquinazolin-2(1H)-one] | 7.55
4 | CC(F)(F)[C@@]1(C#CC2CC2)NC(=O)Nc2cc(CN3C(=O)CNC3=O)c(F)cc21 [Example 14, (S)-3-((4-(cyclopropylethynyl)-4-(1,1-difluoroethyl)-6-fluoro-2-oxo-1,2,3,4-tetrahydroquinazolin-7-yl)methyl)imidazolidine-2,4-dione] | 7.61
5 | CC(F)(F)[C@@]1(C#CC2CC2)NC(=O)Nc2cc(Cn3c(=O)[nH]c4ccccc43)c(F)cc21 [Example 12, (S)-4-(cyclopropylethynyl)-4-(1,1-difluoroethyl)-6-fluoro-7-((2-oxo-2,3-dihydro-1H-benzo[d]imidazol-1-yl)methyl)-3,4-dihydroquinazolin-2(1H)-one] | 7.71
6 | COc1nn(Cc2cc3c(cc2F)[C@@](C#CC2CC2)(C(C)(F)F)NC(=O)N3)cc1F [Example 115, (S)-4-(cyclopropylethynyl)-4-(1,1-difluoroethyl)-6-fluoro-7-((4-fluoro-3-methoxy-1H-pyrazol-1-yl)methyl)-3,4-dihydroquinazolin-2(1H)-one] | 7.70
7 | O=C1Nc2cc(Cn3c(=O)[nH]c4ccccc43)c(F)cc2[C@@](C#CC2CC2)(C(F)(F)F)N1 [Example 24, (S)-4-(cyclopropylethynyl)-6-fluoro-7-((2-oxo-2,3-dihydro-1H-benzo[d]imidazol-1-yl)methyl)-4-(trifluoromethyl)-3,4-dihydroquinazolin-2(1H)-one] | 7.49
8 | NC(=O)c1nccn1Cc1cc2c(cc1F)[C@@](C#CC1CC1)(C(F)(F)F)NC(=O)N2 [Example 100, (S)-1-((4-(cyclopropylethynyl)-6-fluoro-2-oxo-4-(trifluoromethyl)-1,2,3,4-tetrahydroquinazolin-7-yl)methyl)-1H-imidazole-2-carboxamide] | 7.87
9 | COc1cnn(Cc2cc3c(cc2Cl)[C@@](C#CC2CC2)(C(F)(F)F)NC(=O)N3)c1 [Example 123, (S)-6-chloro-4-(cyclopropylethynyl)-7-((4-methoxy-1H-pyrazol-1-yl)methyl)-4-(trifluoromethyl)-3,4-dihydroquinazolin-2(1H)-one] | 7.10
10 | O=C1Nc2cc(CNC(=O)c3nnc[nH]3)c(F)cc2[C@@](C#CC2CC2)(C(F)(F)F)N1 [Example 85, (S)-N-((4-(cyclopropylethynyl)-6-fluoro-2-oxo-4-(trifluoromethyl)-1,2,3,4-tetrahydroquinazolin-7-yl)methyl)-4H-1,2,4-triazole-3-carboxamide] | 6.55
11 | Cn1cnn(Cc2cc3c(cc2F)[C@@](C#CC2CC2)(C(C)(F)F)NC(=O)N3)c1=O [Example 122, (S)-4-(cyclopropylethynyl)-4-(1,1-difluoroethyl)-6-fluoro-7-((4-methyl-5-oxo-4,5-dihydro-1H-1,2,4-triazol-1-yl)methyl)-3,4-dihydroquinazolin-2(1H)-one] | 7.13
12 | CC(F)(F)[C@@]1(C#CC2CC2)NC(=O)Nc2cc(Cn3ccc(N)n3)c(F)cc21 [Example 43, (S)-7-((3-amino-1H-pyrazol-1-yl)methyl)-4-(cyclopropylethynyl)-4-(1,1-difluoroethyl)-6-fluoro-3,4-dihydroquinazolin-2(1H)-one] | 8.07
13 | CC(F)(F)[C@@]1(C#CC2CC2)NC(=O)Nc2cc(Cn3cc(F)c(C(N)=O)n3)c(F)cc21 (single isomer, unassigned) [Example 104] | 7.84
14 | CC(F)(F)[C@@]1(C#CC2CC2)NC(=O)Nc2cc(Cn3ncnc3N)c(F)cc21 (single isomer, unassigned) [Example 105] | 7.96
15 | CNc1ccn(Cc2cc3c(cc2F)[C@@](C#CC2CC2)(C(C)(F)F)NC(=O)N3)n1 [Example 75, (S)-4-(cyclopropylethynyl)-4-(1,1-difluoroethyl)-6-fluoro-7-((3-(methylamino)-1H-pyrazol-1-yl)methyl)-3,4-dihydroquinazolin-2(1H)-one] | 7.43
16 | CC(F)(F)[C@@]1(C#CC2CC2)NC(=O)Nc2cc(Cn3ccc(S(N)(=O)=O)n3)c(F)cc21 [Example 120, (S)-1-((4-(cyclopropylethynyl)-4-(1,1-difluoroethyl)-6-fluoro-2-oxo-1,2,3,4-tetrahydroquinazolin-7-yl)methyl)-1H-pyrazole-3-sulfonamide] | 7.21

Row | SMILES | pEC50
17 | O=C1Nc2cc(Cn3c(=O)[nH]c4cnccc43)c(F)cc2[C@@](C#CC2CC2)(C(F)(F)F)N1 [Example 39, (S)-4-(cyclopropylethynyl)-6-fluoro-7-((2-oxo-2,3-dihydro-1H-imidazo[4,5-c]pyridin-1-yl)methyl)-4-(trifluoromethyl)-3,4-dihydroquinazolin-2(1H)-one] | 7.86
18 | COc1nccn1Cc1cc2c(cc1F)[C@@](C#CC1CC1)(C(C)(F)F)NC(=O)N2 [Example 74, (S)-4-(cyclopropylethynyl)-4-(1,1-difluoroethyl)-6-fluoro-7-((2-methoxy-1H-imidazol-1-yl)methyl)-3,4-dihydroquinazolin-2(1H)-one] | 7.42
19 | O=C1Nc2cc(Cn3cnc(CO)n3)c(F)cc2[C@@](C#CC2CC2)(C(F)(F)F)N1 [Example 31, (S)-4-(cyclopropylethynyl)-6-fluoro-7-((3-(hydroxymethyl)-1H-1,2,4-triazol-1-yl)methyl)-4-(trifluoromethyl)-3,4-dihydroquinazolin-2(1H)-one] | 7.28
20 | Cc1nn(C)c(=O)n1Cc1cc2c(cc1F)[C@@](C#CC1CC1)(C(C)(F)F)NC(=O)N2 [Example 108, (S)-4-(cyclopropylethynyl)-4-(1,1-difluoroethyl)-7-((1,3-dimethyl-5-oxo-1,5-dihydro-4H-1,2,4-triazol-4-yl)methyl)-6-fluoro-3,4-dihydroquinazolin-2(1H)-one] | 7.74
21 | O=C1Nc2cc(CN3Cc4ccccc4C3=O)c(F)cc2[C@@](C#CC2CC2)(C(F)(F)F)N1 [Example 96, (S)-4-(cyclopropylethynyl)-6-fluoro-7-((1-oxoisoindolin-2-yl)methyl)-4-(trifluoromethyl)-3,4-dihydroquinazolin-2(1H)-one] | 7.35
22 | Cc1nn(C)c(=O)n1Cc1cc2c(cc1F)[C@@](C#CC1CC1)(C(F)(F)F)NC(=O)N2 [Example 32, (S)-4-(cyclopropylethynyl)-7-((1,3-dimethyl-5-oxo-1,5-dihydro-4H-1,2,4-triazol-4-yl)methyl)-6-fluoro-4-(trifluoromethyl)-3,4-dihydroquinazolin-2(1H)-one] | 7.84
23 | CC(F)(F)[C@@]1(C#CC2CC2)NC(=O)Nc2cc(Cn3cncn3)c(F)cc21 [Example 20, (S)-7-((1H-1,2,4-triazol-1-yl)methyl)-4-(cyclopropylethynyl)-4-(1,1-difluoroethyl)-6-fluoro-3,4-dihydroquinazolin-2(1H)-one] | 7.36
24 | NC(=O)c1ncnn1Cc1cc2c(cc1F)[C@@](C#CC1CC1)(C(F)(F)F)NC(=O)N2 (single isomer, unassigned) [Example 116] | 7.50
25 | CC(F)(F)[C@@]1(C#CC2CC2)NC(=O)Nc2cc(Cn3ncc(F)c3C(N)=O)c(F)cc21 (single isomer, unassigned) [Example 103] | 7.52
26 | CC(F)(F)[C@@]1(C#CC2CC2)NC(=O)Nc2cc(Cn3cccn3)c(F)cc21 [Example 55, (S)-7-((1H-pyrazol-1-yl)methyl)-4-(cyclopropylethynyl)-4-(1,1-difluoroethyl)-6-fluoro-3,4-dihydroquinazolin-2(1H)-one] | 7.66
27 | CC(F)(F)[C@@]1(C#CC2CC2)NC(=O)Nc2cc(Cn3cc(F)c(CO)n3)c(F)cc21 [Example 67, (S)-4-(cyclopropylethynyl)-4-(1,1-difluoroethyl)-6-fluoro-7-((4-fluoro-3-(hydroxymethyl)-1H-pyrazol-1-yl)methyl)-3,4-dihydroquinazolin-2(1H)-one] | 7.58
28 | CC(F)(F)[C@@]1(C#CC2CC2)NC(=O)Nc2cc(Cn3cnc(CO)c3)c(F)cc21 (single isomer, unassigned) [Example 51] | 6.97
29 | Cc1nc(N)sc1C(=O)NCc1cc2c(cc1F)[C@@](C#CC1CC1)(C(F)(F)F)NC(=O)N2 [Example 84, (S)-2-amino-N-((4-(cyclopropylethynyl)-6-fluoro-2-oxo-4-(trifluoromethyl)-1,2,3,4-tetrahydroquinazolin-7-yl)methyl)-4-methylthiazole-5-carboxamide] | 6.56
30 | CC(F)(F)[C@@]1(C#CC2CC2)NC(=O)Nc2cc(Cn3ccc(OC(F)F)n3)c(F)cc21 [Example 63, (S)-4-(cyclopropylethynyl)-4-(1,1-difluoroethyl)-7-((3-(difluoromethoxy)-1H-pyrazol-1-yl)methyl)-6-fluoro-3,4-dihydroquinazolin-2(1H)-one] | 7.47
31 | CC(F)(F)[C@@]1(C#CC2CC2)NC(=O)Nc2cc(Cn3[nH]c(=O)c4c3CCC4)c(F)cc21 [Example 61, (S)-4-(cyclopropylethynyl)-4-(1,1-difluoroethyl)-6-fluoro-7-((3-oxo-3,4,5,6-tetrahydrocyclopenta[c]pyrazol-1(2H)-yl)methyl)-3,4-dihydroquinazolin-2(1H)-one] | 7.51

Same assay, conditions: read-out: TACK EC50

Row | SMILES | pEC50
32 | COC(C)c1ccn(Cc2cc3c(cc2F)[C@@](C#CC2CC2)(C(C)(F)F)NC(=O)N3)n1 (single isomer, unassigned) [Example 58, (S)-4-(cyclopropylethynyl)-4-(1,1-difluoroethyl)-6-fluoro-7-((3-((R or S)-1-methoxyethyl)-1H-pyrazol-1-yl)methyl)-3,4-dihydroquinazolin-2(1H)-one] | 7.60
